From ChEMBL document CHEMBL1671662, “In vitro activities of telavancin and six comparator agents against anaerobic bacterial isolates” (2009)

Key:
Assay type in all cases: functional
[1] = tested on: Peptostreptococcus anaerobius; experiment: Antibacterial activity against Peptostreptococcus anaerobius by CLSI M11-A6 agar dilution method in presence of beta-lactamase inhibitor Sulbactam
Blautia luti = experiment: Antibacterial activity against Ruminococcus luti by CLSI M11-A6 agar dilution method in presence of beta-lactamase inhibitor Sulbactam
[2] = tested on: Catenibacterium mitsuokai; experiment: Antibacterial activity against Catenibacterium mitsuokai by CLSI M11-A6 agar dilution method in presence of beta-lactamase inhibitor Sulbactam
[3] = tested on: Parabacteroides distasonis; experiment: Antibacterial activity against Parabacteroides distasonis by CLSI M11-A6 agar dilution method in presence of beta-lactamase inhibitor Sulbactam
Clostridium tertium = experiment: Antibacterial activity against Clostridium tertium by CLSI M11-A6 agar dilution method in presence of beta-lactamase inhibitor Sulbactam
Ruminococcus albus = experiment: Antibacterial activity against Ruminococcus albus by CLSI M11-A6 agar dilution method in presence of beta-lactamase inhibitor Sulbactam; settings: Hominimerdicola alba
Coriobacterium = experiment: Antibacterial activity against […] by CLSI M11-A6 agar dilution method in presence of beta-lactamase inhibitor Sulbactam
[4] = tested on: Clostridium paraputrificum; experiment: Antibacterial activity against Clostridium paraputrificum by CLSI M11-A6 agar dilution method in presence of beta-lactamase inhibitor Sulbactam
Blautia producta = experiment: Antibacterial activity against Ruminococcus productus by CLSI M11-A6 agar dilution method in presence of beta-lactamase inhibitor Sulbactam
Bifidobacterium dentium = experiment: Antibacterial activity against Bifidobacterium dentium by CLSI M11-A6 agar dilution method in presence of beta-lactamase inhibitor Sulbactam
Prevotella oris = experiment: Antibacterial activity against Prevotella oris by CLSI M11-A6 agar dilution method in presence of beta-lactamase inhibitor Sulbactam; settings: Segatella oris
Anaerococcus tetradius = experiment: Antibacterial activity against Anaerococcus tetradius by CLSI M11-A6 agar dilution method in presence of beta-lactamase inhibitor Sulbactam
Clostridium perfringens = experiment: Antibacterial activity against Clostridium perfringens by CLSI M11-A6 agar dilution method in presence of beta-lactamase inhibitor Sulbactam
Flavonifractor plautii = experiment: Antibacterial activity against Clostridium orbiscindens by CLSI M11-A6 agar dilution method in presence of beta-lactamase inhibitor Sulbactam
Bifidobacterium breve = experiment: Antibacterial activity against Bifidobacterium breve by CLSI M11-A6 agar dilution method in presence of beta-lactamase inhibitor Sulbactam
Prevotella denticola = experiment: Antibacterial activity against Prevotella denticola by CLSI M11-A6 agar dilution method in presence of beta-lactamase inhibitor Sulbactam
[5] = tested on: Streptococcus constellatus; experiment: Antibacterial activity against Streptococcus constellatus by CLSI M11-A6 agar dilution method in presence of beta-lactamase inhibitor Sulbactam
Clostridium hathewayi = experiment: Antibacterial activity against Clostridium hathewayi by CLSI M11-A6 agar dilution method in presence of beta-lactamase inhibitor Sulbactam; settings: Hungatella hathewayi
Bilophila wadsworthia = experiment: Antibacterial activity against Bilophila wadsworthia by CLSI M11-A6 agar dilution method in presence of beta-lactamase inhibitor Sulbactam
Thomasclavelia ramosa = experiment: Antibacterial activity against Clostridium ramosum by CLSI M11-A6 agar dilution method in presence of beta-lactamase inhibitor Sulbactam
Fusobacterium varium = experiment: Antibacterial activity against Fusobacterium varium by CLSI M11-A6 agar dilution method in presence of beta-lactamase inhibitor Sulbactam
[6] = tested on: Enterocloster clostridioformis; experiment: Antibacterial activity against Clostridium clostridioforme by CLSI M11-A6 agar dilution method in presence of beta-lactamase inhibitor Sulbactam
[Clostridium] innocuum = Antibacterial activity against Clostridium innocuum by CLSI M11-A6 agar dilution method in presence of beta-lactamase inhibitor Sulbactam
Phocaeicola vulgatus = experiment: Antibacterial activity against Bacteroides vulgatus by CLSI M11-A6 agar dilution method in presence of beta-lactamase inhibitor Sulbactam
Collinsella aerofaciens = experiment: Antibacterial activity against Colinsella aerofaciens by CLSI M11-A6 agar dilution method in presence of beta-lactamase inhibitor Sulbactam
Prevotella buccae = experiment: Antibacterial activity against Prevotella buccae by CLSI M11-A6 agar dilution method in presence of beta-lactamase inhibitor Sulbactam; settings: Segatella buccae
Fusobacterium mortiferum = experiment: Antibacterial activity against Fusobacterium mortiferum by CLSI M11-A6 agar dilution method in presence of beta-lactamase inhibitor Sulbactam
Ruminococcus gnavus = experiment: Antibacterial activity against Ruminococcus gnavus by CLSI M11-A6 agar dilution method in presence of beta-lactamase inhibitor Sulbactam; settings: Mediterraneibacter gnavus
Clostridium subterminale = experiment: Antibacterial activity against Clostridium subterminale by CLSI M11-A6 agar dilution method in presence of beta-lactamase inhibitor Sulbactam
[7] = tested on: Coprobacillus cateniformis; experiment: Antibacterial activity against Coprobacillus cateniformis by CLSI M11-A6 agar dilution method in presence of beta-lactamase inhibitor Sulbactam
Anaerococcus prevotii = experiment: Antibacterial activity against Anaerococcus prevotii by CLSI M11-A6 agar dilution method in presence of beta-lactamase inhibitor Sulbactam
[8] = tested on: Prevotella melaninogenica; experiment: Antibacterial activity against Prevotella melaninogenica by CLSI M11-A6 agar dilution method in presence of beta-lactamase inhibitor Sulbactam
Clostridium glycolicum = experiment: Antibacterial activity against Clostridium glycolicum by CLSI M11-A6 agar dilution method in presence of beta-lactamase inhibitor Sulbactam; settings: Terrisporobacter glycolicus
Bifidobacterium bifidum = experiment: Antibacterial activity against Bifidobacterium bifidum by CLSI M11-A6 agar dilution method in presence of beta-lactamase inhibitor Sulbactam
[9] = tested on: Paeniclostridium sordellii; experiment: Antibacterial activity against Clostridium sordellii by CLSI M11-A6 agar dilution method in presence of beta-lactamase inhibitor Sulbactam; settings: Paraclostridium sordellii

SMILES: CC1(C)S[C@@H]2[C@H](NC(=O)[C@H](N)c3ccccc3)C(=O)N2[C@H]1C(=O)O [AMPICILLIN]
- MIC50 [1]: 0.25 µg/mL
- MIC90 [1]: 0.5 µg/mL
- MIC50 (Blautia luti): ≤ 0.12 µg/mL
- MIC90 (Blautia luti): 1 µg/mL
- MIC50 [2]: 0.25 µg/mL
- MIC90 [2]: 1 µg/mL
- MIC50 [3]: 8 µg/mL
- MIC90 [3]: 32 µg/mL
- MIC50 (Clostridium tertium): 0.25 µg/mL
- MIC90 (Clostridium tertium): 1 µg/mL
- MIC50 (Ruminococcus albus): ≤ 0.12 µg/mL
- MIC90 (Ruminococcus albus): 1 µg/mL
- MIC50 (Coriobacterium): 0.25 µg/mL
- MIC90 (Coriobacterium): 1 µg/mL
- MIC50 [4]: 0.25 µg/mL
- MIC90 [4]: 1 µg/mL
- MIC50 (Blautia producta): ≤ 0.12 µg/mL
- MIC90 (Blautia producta): 1 µg/mL
- MIC50 (Bifidobacterium dentium): 0.25 µg/mL
- MIC90 (Bifidobacterium dentium): 1 µg/mL
- MIC50 (Prevotella oris): ≤ 0.12 µg/mL
- MIC90 (Prevotella oris): 2 µg/mL
- MIC50 (Anaerococcus tetradius): 0.25 µg/mL
- MIC90 (Anaerococcus tetradius): 0.5 µg/mL
- MIC (Clostridium perfringens): ≤ 0.12 µg/mL
- MIC50 (Clostridium perfringens): ≤ 0.12 µg/mL
- MIC90 (Clostridium perfringens): ≤ 0.12 µg/mL
- MIC50 (Flavonifractor plautii): 0.25 µg/mL
- MIC90 (Flavonifractor plautii): 1 µg/mL
- MIC50 (Bifidobacterium breve): 0.25 µg/mL
- MIC90 (Bifidobacterium breve): 1 µg/mL
- MIC50 (Prevotella denticola): ≤ 0.12 µg/mL
- MIC90 (Prevotella denticola): 2 µg/mL
- MIC50 [5]: 0.5 µg/mL
- MIC90 [5]: 0.5 µg/mL
- MIC50 (Clostridium hathewayi): 2 µg/mL
- MIC90 (Clostridium hathewayi): 2 µg/mL
- MIC50 (Bilophila wadsworthia): 2 µg/mL
- MIC90 (Bilophila wadsworthia): 4 µg/mL
- MIC50 (Thomasclavelia ramosa): ≤ 0.12 µg/mL
- MIC90 (Thomasclavelia ramosa): 0.5 µg/mL
- MIC50 (Fusobacterium varium): 2 µg/mL
- MIC90 (Fusobacterium varium): 16 µg/mL
- MIC50 [6]: 2 µg/mL
- MIC90 [6]: 16 µg/mL
- MIC50 ([Clostridium] innocuum): 0.5 µg/mL
- MIC90 ([Clostridium] innocuum): 0.5 µg/mL
- MIC50 (Phocaeicola vulgatus): 8 µg/mL
- MIC90 (Phocaeicola vulgatus): 16 µg/mL
- MIC50 (Collinsella aerofaciens): 0.25 µg/mL
- MIC90 (Collinsella aerofaciens): 1 µg/mL
- MIC50 (Prevotella buccae): ≤ 0.12 µg/mL
- MIC90 (Prevotella buccae): 2 µg/mL
- MIC50 (Fusobacterium mortiferum): 2 µg/mL
- MIC90 (Fusobacterium mortiferum): 16 µg/mL
- MIC50 (Ruminococcus gnavus): ≤ 0.12 µg/mL
- MIC90 (Ruminococcus gnavus): 1 µg/mL
- MIC50 (Clostridium subterminale): ≤ 0.12 µg/mL
- MIC90 (Clostridium subterminale): 0.25 µg/mL
- MIC50 [7]: 0.25 µg/mL
- MIC90 [7]: 1 µg/mL
- MIC50 (Anaerococcus prevotii): 0.25 µg/mL
- MIC90 (Anaerococcus prevotii): 0.5 µg/mL
- MIC50 [8]: ≤ 0.12 µg/mL
- MIC90 [8]: 2 µg/mL
- MIC50 (Clostridium glycolicum): 0.25 µg/mL
- MIC90 (Clostridium glycolicum): 1 µg/mL
- MIC50 (Bifidobacterium bifidum): 0.25 µg/mL
- MIC90 (Bifidobacterium bifidum): 1 µg/mL
- MIC50 [9]: 0.25 µg/mL
- MIC90 [9]: 1 µg/mL
